Holding throughout (test): DTP human tumour cell line panel, 48 h
Assay [1] concerns HL-60(TB) leukemia.
The subject of assay [2] is KM12 colon.
In assay [3] the test system is NCI/ADR-RES ovarian.
Assay [4] has as its system PC-3 prostate.
The subject of assay [5] is T-47D breast.
In assay [6] the test system is MOLT-4 leukemia.
Assay [7] relates to UACC-257 melanoma.
For assay [8], the system named is SK-MEL-5 melanoma.
The subject of assay [9] is K-562 leukemia.
The subject of assay [10] is RXF 393 renal.

Each structure is given as a SMILES string.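 All cell lines were grown in 96-well plates and treated with compound for 48 hours. The concentration for 50% growth inhibition is given as GI50. The concentration for full growth arrest is given as TGI.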 Bounds are passed on as bounds.

The term GI50 denotes the concentration giving 50% growth inhibition. Broadly, the TGI is the concentration giving total growth inhibition. Higher therefore signals lower sensitivity of the cells. Take `Cc1sc(NC2=NC(=O)/C(=C\c3ccccc3)S2)nc1-c1nc(NC2=NC(=O)/C(=C\c3ccccc3)S2)sc1C`: the GI50 in assay [1] was 18 µM; in assay [2], 11.1 µM; in [3], 14.4 µM; in assay [4], 16.7 µM; in assay [5] it was 28.2 µM; in assay [6], 24.2 µM. For the same compound, the GI50 was 13.7 µM in assay [7], 13.1 µM in assay [8], 13.2 µM in [9] and above 24.2 µM in assay [10]. Also, the TGI in [1] was above 50 µM; in assay [2], above 37.9 µM; in assay [3], 43.8 µM; in assay [4] it was above 50 µM; in [5] it was above 50 µM; in [6], above 50 µM. Besides, the TGI in assay [7] is above 38.7 µM; in assay [8], above 34.5 µM; in assay [9] it was above 35 µM; in assay [10], above 40.2 µM.

Regarding `C=CC[C@@H]1/C=C(\C)C[C@H](C)C[C@H](OC)[C@H]2O[C@@](O)(C(=O)C(=O)N3CCCC[C@H]3C(=O)O[C@H](/C(C)=C/C3CC[C@@H](O)[C@H](OC)C3)[C@H](C)[C@@H](O)CC1=O)[C@H](C)C[C@@H]2OC` (some centres undefined), the GI50 in assay [1] was 16.4 µM; in assay [2] it was 14.9 µM; in assay [3], 15 µM; in [4], 12.1 µM; in assay [5], 16.5 µM; in assay [6] it was 14.4 µM. In addition, the GI50 is 15.8 µM in assay [7], 13.7 µM in assay [8], 18.7 µM in assay [9] and 13.6 µM in assay [10]. Besides, the TGI was found to be 38.4 µM in [1]; 28.7 µM in assay [2]; 35.3 µM in assay [3]; 25.7 µM in [4]; 35.6 µM in [5]; 41.6 µM in assay [6]. The TGI in [7] came to 30.6 µM; in assay [8], 26.6 µM; in assay [9] it was 52 µM; in assay [10], 27.3 µM.

As for `Brc1ccccc1C=NC12CC3CC(CC(C3)C1)C2`, the TGI in assay [1] was 4.37 µM; in assay [2], above 100 µM; in assay [3] it was above 100 µM; in assay [4], above 100 µM; in [5], above 100 µM; in assay [6] it was above 91.1 µM. For the same compound, the TGI in [7], in assay [8], in assay [9] and in assay [10] was above 100 µM throughout.

In the case of `OCC1OC2OC3C(CO)OC(OC4C(CO)OC(OC5C(CO)OC(OC6C(CO)OC(OC7C(CO)OC(OC1C(O)C2O)C(O)C7O)C(O)C6O)C(O)C5O)C(O)C4O)C(O)C3O` (centres undefined) (tested in a mixture with another compound), the TGI was 55 µM in assay [1]; above 100 µM in assay [2]; above 96.1 µM in [3]; above 100 µM in assay [4]; above 100 µM in assay [5]; above 100 µM in [6]. For the same compound, the TGI in assay [7] is above 100 µM; in [8], 97.8 µM; in assay [9], above 100 µM; in assay [10] it was above 100 µM.

Consider `Cc1nn(-c2ccccc2)c2nc3c(nc12)C1=NCCN1C(c1ccc(Cl)cc1)N3` (centres undefined), for which the GI50 in assay [1] was 1.87 µM; in assay [2], 3.62 µM; in [3], 13.4 µM; in assay [4] it was 4.33 µM; in [5], 1.74 µM; in [6] it was 2.38 µM. In addition, the GI50 in assay [7] was 1.79 µM; in assay [8], 1.57 µM; in [9], 2.42 µM; in assay [10], 1.56 µM. For the same compound, the TGI in assay [1] was found to be 4.4 µM; in [2], 12.2 µM; in assay [3], 32 µM; in [4], 18.3 µM; in assay [5] it was 3.42 µM; in [6], 6.01 µM. Besides, the TGI in assay [7] was 3.49 µM; in assay [8], 3.12 µM; in assay [9] it was 6.19 µM; in assay [10], 3.07 µM.

`O=C(O)c1ccccc1-c1ccccc1C(=O)Nc1ccc2c(c1)[nH]c(=O)c1ccccc12`: the TGI in assay [1], in [2], in [3], in assay [4], in [5] and in assay [6] was above 100 µM in each case. The TGI in assay [7], in assay [8], in assay [9] and in assay [10] was above 100 µM in each case.

Regarding `O=C1/C(=C/c2ccccc2F)CN(C(=O)C(Cl)Cl)C/C1=C\c1ccccc1F`, the GI50 was 0.363 µM in assay [1]; 0.245 µM in assay [2]; 0.342 µM in [3]; 0.296 µM in assay [4]; 0.71 µM in [5]; 0.329 µM in assay [6]. Further, the GI50 in assay [7] is 1.08 µM; in assay [8] it was 0.533 µM; in [9], below 0.04 µM; in assay [10], 0.584 µM. Moreover, the TGI in assay [1] came to 2.25 µM; in assay [2] it was 0.685 µM; in assay [3], 2.64 µM; in assay [4], 1.08 µM; in [5], 3.97 µM; in assay [7], 3.19 µM. Further, the TGI was 1.64 µM in assay [8], above 100 µM in assay [9] and 1.75 µM in assay [10].

As to `COc1cc(C2CC(c3ccccc3)=NN2C(C)=O)cc(OC)c1OC` (centres undefined), the GI50 in [1] is 3.26 µM; in [2] it was 1.42 µM; in assay [3] it was 2.8 µM; in assay [4], 3.97 µM; in assay [5], 5.33 µM; in [6], 5.5 µM. The GI50 in assay [7] is above 100 µM; in [8], 2.87 µM; in [9], 2.77 µM; in assay [10] it was 4.14 µM. In addition, the TGI was above 31.7 µM in assay [1]; above 100 µM in assay [2]; above 26.1 µM in assay [3]; above 100 µM in assay [4]; above 100 µM in [5]; above 100 µM in assay [6]. The TGI is above 100 µM in [7], above 100 µM in [8], above 100 µM in assay [9] and above 48.2 µM in [10].

Values taken from PubChem BioAssay (NCI).
